Results filed as inconclusive are left out.

The test system of this experiment is nude mice, HT29 intrarenal xenograft, tumor weight T/C. In words: NCI In Vivo Anticancer Drug Screen. Data for tumor model HT29;CX-1 Human Adenocarcinoma (MER+) (intrarenal inoculation) in NU/NU Swiss (nude) mice. As to conditions: endpoint: mean tumor weight change, higher = larger tumour. How it is done:
The antitumor activity of compounds was measured in mice bearing transplantable tumors. Survival or tumor size were measured and the results are expressed as the measurement made in the treated group (T) divided by the measurement made in the vehicle treated control group (C). The tumor model used in this assay is HT29;CX-1 Human Adenocarcinoma (MER+) (intrarenal inoculation) in NU/NU Swiss (nude) mice

The mark [1] stands for this setting: dose: 150.0 mg/kg/injection, schedule: Q04DX004 (sc), vehicle: Klucel (hydroxypropylcellulose) (HPC).
Where [2] appears, read: dose: 300.0 mg/kg/injection, schedule: Q04DX004 (sc), vehicle: Klucel (hydroxypropylcellulose) (HPC).
Where [3] appears, read: dose: 600.0 mg/kg/injection, schedule: Q04DX004 (sc), vehicle: Klucel (hydroxypropylcellulose) (HPC).
[4] abbreviates: dose: 75.0 mg/kg/injection, schedule: Q04DX004 (sc), vehicle: saline with Tween-80.
Where [5] appears, read: dose: 150.0 mg/kg/injection, schedule: Q04DX004 (sc), vehicle: saline with Tween-80.
Where [6] appears, read: dose: 300.0 mg/kg/injection, schedule: Q04DX004 (sc), vehicle: saline with Tween-80.
Where [7] appears, read: dose: 600.0 mg/kg/injection, schedule: Q04DX004 (sc), vehicle: saline with Tween-80.
Where [8] appears, read: dose: 1200.0 mg/kg/injection, schedule: Q04DX004 (sc), vehicle: Klucel (hydroxypropylcellulose) (HPC).
The mark [9] stands for this setting: dose: 100.0 mg/kg/injection, schedule: Q04DX004 (sc), vehicle: saline with Tween-80.
The mark [10] stands for this setting: dose: 1200.0 mg/kg/injection, schedule: Q04DX004 (sc), vehicle: saline with Tween-80.

In the case of `CC[N](CC)[Ge]([CH2]C)[CH2]C.CC[N](CC)[Ge]([CH2]C)[CH2]C`, the T/C was 226 % of control (dose: 12.5 mg/kg/injection, schedule: Q01DX010 (sc), vehicle: suspension in saline) and 158 % of control (dose: 25.0 mg/kg/injection, schedule: Q01DX010 (sc), vehicle: suspension in saline).
Turning to `O=NN(CCCl)C(=O)Oc1cc(Cl)c(Cl)cc1Cl`, the T/C is, setting by setting: under setting [1], 94 % of control; under setting [2], 83 % of control; under setting [3], 92 % of control.
`CC1=C(C)C(=O)O[C@@H]([C@](C)(O)[C@]2(O)CC[C@@]3(O)[C@@H]4C[C@H]5O[C@]56[C@@H](O)C=CC(=O)[C@]6(C)[C@H]4CC[C@]23C)C1`: the T/C is 169 % of control (dose: 4.0 mg/kg/injection, schedule: Q01DX010 (sc), vehicle: saline) and 46 % of control (dose: 64.0 mg/kg/injection, schedule: Q01DX010 (sc), vehicle: saline).
Regarding `CN(C)P(=O)(Oc1ccccc1)N(C)C`, the T/C under setting [4] is 183 % of control, the T/C under setting [5] was 122 % of control, the T/C under setting [6] is 62 % of control and the T/C under setting [7] is 40 % of control.
As for `CCC1(O)CC2CN(CCc3c([nH]c4ccccc34)C(C(=O)OC)(c3cc4c(cc3OC)N(C)C3C(O)(C(N)=O)C(O)C5(CC)C=CCN6CCC43C65)C2)C1` (stereo unspecified) (tested in a mixture with another compound), the T/C was 87 % of control (dose: 1.5 mg/kg/injection, schedule: Q04DX004 (sc), vehicle: water) and -25 % of control (dose: 12.0 mg/kg/injection, schedule: Q04DX004 (sc), vehicle: water).
As to `NC(=O)c1cn(C2OC(CO)C(O)C2O)c2ncnc(N)c12` (stereo unspecified), the T/C (dose: 1.0 mg/kg/injection, schedule: Q01DX010 (sc), vehicle: saline) is 115 % of control and the T/C (dose: 2.0 mg/kg/injection, schedule: Q01DX010 (sc), vehicle: saline) was 94 % of control.
For the compound `Cc1ccc(C2NC(=O)c3ccccc3N2)s1` (stereo unspecified), the T/C under setting [3] was 101 % of control; the T/C under setting [8] is 95 % of control; the T/C (dose: 2400.0 mg/kg/injection, schedule: Q04DX004 (sc), vehicle: Klucel (hydroxypropylcellulose) (HPC)) was 96 % of control; the T/C (dose: 4800.0 mg/kg/injection, schedule: Q04DX004 (sc), vehicle: Klucel (hydroxypropylcellulose) (HPC)) is 92 % of control.
`C=C(C)C(=NC(C)(C)C)Nc1ccccc1`: the T/C under setting [9] is 52 % of control.
`Nc1ccc2nc3ccc(N)cc3[n+](-c3ccccc3)c2c1`: the T/C is, setting by setting: (dose: 9.0 mg/kg/injection, schedule: Q04DX004 (sc), vehicle: saline) 80 % of control; (dose: 18.0 mg/kg/injection, schedule: Q04DX004 (sc), vehicle: saline) 62 % of control; (dose: 36.0 mg/kg/injection, schedule: Q04DX004 (sc), vehicle: saline) 96 % of control; (dose: 72.0 mg/kg/injection, schedule: Q04DX004 (sc), vehicle: saline) 52 % of control.
For the compound `Nc1ncnc2c1ncn2C1OC(CO)C(O)C1O` (stereo unspecified), the T/C (dose: 37.5 mg/kg/injection, schedule: Q04DX004 (sc), vehicle: saline) was 97 % of control; the T/C (dose: 75.0 mg/kg/injection, schedule: Q04DX004 (sc), vehicle: saline) was 84 % of control; the T/C under setting [1] was 67 % of control; the T/C (dose: 150.0 mg/kg/injection, schedule: Q04DX004 (sc), vehicle: saline) is 44 % of control; the T/C under setting [2] is 78 % of control; the T/C under setting [3] was 94 % of control. Further, the T/C under setting [8] is 66 % of control.
Take `CN1C(=O)C(=Cc2ccc(O)cc2)C(=O)N(C)C1=O`: the T/C by setting is: under setting [5], 116 % of control; under setting [6], 101 % of control; under setting [7], 99 % of control; under setting [10], 74 % of control.
In the case of `CCCCCCCCSC1=C(Cl)C(=O)C(OC)=C(OC)C1=O`, the T/C (dose: 18.0 mg/kg/injection, schedule: Q04DX004 (sc), vehicle: saline with Tween-80) was 96 % of control; the T/C (dose: 36.0 mg/kg/injection, schedule: Q04DX004 (sc), vehicle: saline with Tween-80) is 82 % of control; the T/C (dose: 72.0 mg/kg/injection, schedule: Q04DX004 (sc), vehicle: saline with Tween-80) was 118 % of control; the T/C (dose: 144.0 mg/kg/injection, schedule: Q04DX004 (sc), vehicle: saline with Tween-80) was 59 % of control.
In the case of `Cn1cnc([N+](=O)[O-])c1[Se]c1nc(N)nc2nc[nH]c12`, for the setting “dose: 50.0 mg/kg/injection, schedule: Q01DX010 (sc), vehicle: water”, the T/C was 100 % of control.
As for `C[C@]12CC[C@H](O)CC1=CC[C@@H]1[C@@H]2CC[C@]2(C)C(=O)CC[C@@H]12`, the T/C was 110 % of control under setting [4], 180 % of control under setting [5], 54 % of control under setting [6] and 67 % of control under setting [7].
In the case of `CCN(CC)CC[n+]1ccc2c(C)c3[nH]c4ccc(O)cc4c3c(C)c2c1`, the T/C runs as follows: (dose: 12.5 mg/kg/injection, schedule: Q04DX004 (sc), vehicle: suspension in saline) 56 % of control; (dose: 25.0 mg/kg/injection, schedule: Q04DX004 (sc), vehicle: suspension in saline) 24 % of control.
For `COC1=C(OC)C(=O)C(C/C=C(\C)CC/C=C(\C)CC/C=C(\C)CC/C=C(\C)CC/C=C(\C)CC/C=C(\C)CC/C=C(\C)CC/C=C(\C)CC/C=C(\C)CCC=C(C)C)=C(C)C1=O`, the T/C is 113 % of control (dose: 100.0 mg/kg/injection, schedule: Q01DX010 (sc), vehicle: saline with Tween-80); 98 % of control (dose: 200.0 mg/kg/injection, schedule: Q01DX010 (sc), vehicle: saline with Tween-80); 105 % of control (dose: 400.0 mg/kg/injection, schedule: Q01DX010 (sc), vehicle: saline with Tween-80); 46 % of control (dose: 800.0 mg/kg/injection, schedule: Q01DX010 (sc), vehicle: saline with Tween-80).
Turning to `NC(C/[N+]([O-])=N/O)C(=O)O` (stereo unspecified), the T/C is 186 % of control (dose: 50.0 mg/kg/injection, schedule: Q01DX010 (sc), vehicle: saline) and 53 % of control (dose: 100.0 mg/kg/injection, schedule: Q01DX010 (sc), vehicle: saline).
For the compound `Cc1cc2cc3cc(C)c(N)cc3nc2cc1N`, the T/C by setting is: (dose: 50.0 mg/kg/injection, schedule: Q04DX004 (sc), vehicle: saline with Tween-80) 86 % of control; under setting [9], 90 % of control; (dose: 200.0 mg/kg/injection, schedule: Q04DX004 (sc), vehicle: saline with Tween-80) 82 % of control; under setting [6], 89 % of control; (dose: 400.0 mg/kg/injection, schedule: Q04DX004 (sc), vehicle: saline with Tween-80) 66 % of control; under setting [7], 21 % of control. Also, the T/C under setting [10] is 37 % of control and the T/C (dose: 2400.0 mg/kg/injection, schedule: Q04DX004 (sc), vehicle: saline with Tween-80) is 45 % of control.
As to `O=C(O)CSc1nc(-c2ccccc2)c(-c2ccccc2)n1-c1ccccn1`, where the note is “dose: 250.0 mg/kg/injection, schedule: Q04DX004 (sc), vehicle: water”, the T/C is 55 % of control.

For the origin of these results see PubChem BioAssay AID206 (DTP/NCI, 2004).
